Paper PMC9402538, “Rational design of a sensitivity-enhanced tracer for discovering efficient APC–Asef inhibitors” (Nature Communications, 2022)
Changes are numbered by the printed parent chain. Where “and” joins values, the source holds several entries; their conditions need not be identical. Identical values can stand only once. Entries after “also recorded” stand apart in the source; their conditions may differ. Like-named read-outs stand apart in the source and are kept apart here. Where a SMILES comes first, the peptide text is derived from it. The star is where a group is joined. Benzoyl(4-OMe) = COc1ccc(C(=O)*)cc1

What was measured:
APC W593A, N641A = molecular target: T1, APC W593A, N641A (Homo sapiens, UniProt P25054, N641A/W593A); assay: ITC assay, APC W593A, N641A double mutant; assay type: binding
T1 sequence (P25054 303-739 W593A/N641A): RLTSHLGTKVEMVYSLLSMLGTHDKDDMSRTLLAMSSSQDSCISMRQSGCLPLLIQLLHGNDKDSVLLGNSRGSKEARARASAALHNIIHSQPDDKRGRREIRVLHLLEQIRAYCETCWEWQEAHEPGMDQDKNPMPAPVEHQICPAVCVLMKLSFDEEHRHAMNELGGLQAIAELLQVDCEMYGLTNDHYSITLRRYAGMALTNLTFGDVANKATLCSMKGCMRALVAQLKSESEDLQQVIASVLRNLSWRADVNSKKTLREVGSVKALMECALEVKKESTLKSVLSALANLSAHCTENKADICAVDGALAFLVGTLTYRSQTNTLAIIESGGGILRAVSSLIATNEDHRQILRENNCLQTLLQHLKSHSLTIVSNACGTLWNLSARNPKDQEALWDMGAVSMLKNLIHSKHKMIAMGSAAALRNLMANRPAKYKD
Experimental: ITC experiments were performed using a MicroCal ITC200 calorimeter (Malvern Panalytical Ltd.). APC protein and peptide inhibitors were diluted with buffer containing 50 mM HEPES pH 7.5, 300 mM NaCl and 1 mM EDTA. The cells were loaded with APC proteins at 10–20 μM. All injections were performed using an initial injection of 0.2 μL followed by 19 injections of 2 μL at 100–200 μM. All measurements were carried out at 30 °C. The data were analyzed using a single-site binding model within MicroCal ITC200 analysis software to generate the stoichiometry (N), enthalpy changes (ΔH), entropy changes (ΔS), and the association constant (K) of binding. The changes in free energy (ΔG) were calculated (ΔG = ΔH-TΔS).

His-tagged APC (303–739) = molecular target: T2, His-tagged APC (303–739) (Homo sapiens, UniProt P25054); assay: Surface plasmon resonance (Biacore 8K); assay type: binding
T2 sequence (P25054 303-739): T1 sequence (P25054 303-739 W593A/N641A) with A291W, A339N
Experimental: SPR experiments were performed using a Biacore 8 K system equipped with a CM5 sensor chip. […] The ligand at a 10 μg mL^-1 concentration in 10 mM sodium acetate, pH 5.0, was immobilized on flow cell 2; flow cell 1 was left blank to serve as a reference surface. […] To collect kinetic binding data, a serial concentration of peptide inhibitors in 1× PBS, pH 7.4, was injected over the two flow cells at a flow rate of 30 μL min^-1 and a temperature of 25 °C. The complex was allowed to associate and dissociate for 60–240 and 150–600 s, respectively. The experiments were performed in triplicate. […] The data were fitted to a Langmuir 1:1 binding model using the local Rmax analysis option available in the Biacore insight evaluation software.

SW480 cells = assay: Wound-healing migration assay, SW480; assay type: cell-based
Experimental: Cells were seeded in 12-well plates at a density of 4 × 10^5 cells per well and grown until 90% confluence in DMEM supplemented with 10% FBS. The monolayers were scratched with a sterile pipette tip (QSP; T104TLS-Q). The cells were washed with 1× PBS and then cultured in culture medium containing 1% FBS and peptides or peptidomimetics. The corresponding photos were captured at the time of scratching and after 24–72 h.

[1] = molecular target: T3, APC–Asef PPI (HA–APC (303–876), FLAG–Asef (170–632)) (Homo sapiens, UniProt P25054); assay: Exogenous Co-IP of APC–Asef in drug-treated HEK293T cells; settings: 24 h, TAT + linker and MAI-516 50 μM, MAIT-516 25 and 50 μM
T3 sequence (P25054 303-876): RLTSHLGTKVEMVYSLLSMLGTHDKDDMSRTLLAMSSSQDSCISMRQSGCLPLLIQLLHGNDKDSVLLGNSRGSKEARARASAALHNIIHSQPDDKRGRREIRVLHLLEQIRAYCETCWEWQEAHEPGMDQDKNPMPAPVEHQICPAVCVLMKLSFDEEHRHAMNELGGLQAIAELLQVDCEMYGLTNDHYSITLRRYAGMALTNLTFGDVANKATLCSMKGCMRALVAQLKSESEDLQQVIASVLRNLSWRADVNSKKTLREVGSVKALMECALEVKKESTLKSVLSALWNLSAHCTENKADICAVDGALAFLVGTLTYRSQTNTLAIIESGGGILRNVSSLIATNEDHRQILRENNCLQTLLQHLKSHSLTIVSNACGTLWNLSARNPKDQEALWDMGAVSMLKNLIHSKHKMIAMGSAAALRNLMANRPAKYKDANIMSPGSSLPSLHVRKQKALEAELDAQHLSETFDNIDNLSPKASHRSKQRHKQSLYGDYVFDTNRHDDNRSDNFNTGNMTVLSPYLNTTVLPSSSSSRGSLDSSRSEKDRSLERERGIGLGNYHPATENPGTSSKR
Experimental: For direct western blot analysis, cells were harvested in NP-40 lysis buffer (1% NP-40, 50 mM Tris-HCl at pH 7.5, 150 mM NaCl, 1 mM PMSF, 25 mM NaF, 1 mM Na3VO4) supplemented with cOmplete™ Protease Inhibitor Cocktail (Roche). […] Forty-eight hours after transfection, the cells were washed twice with cold PBS and lysed in NP-40 lysis buffer for 1 h on ice. […] The next day, the samples were centrifuged (7,000 × g for 30 s at 4 °C), and the supernatant was discarded. The beads were washed four times with NP-40 lysis buffer, and the bound proteins were eluted in SDS sample buffer for immunoblotting analysis and detected with anti-FLAG (Sigma; F1804, 1:1,000), anti-HA antibody (Sigma; H9658, 1:20,000) and goat anti-mouse IgG secondary antibody (Signalway antibody; L3032, 1:50,000). […] Twenty-four hours after transfection, peptides and peptidomimetics were added to the culture medium for 24 h. […] For endogenous immunoprecipitation, SW480, DLD1, and RKO cells were seeded in 10-cm cell culture dishes.

COc1ccc(C(=O)N[C@@H](C)C(=O)NCC(=O)N[C@@H](CCC(=O)O)C(=O)N[C@@H](CO)C(=O)N[C@@H](CC(C)C)C(=O)N[C@@H](Cc2ccc(O)cc2)C(=O)N[C@@H](CCC(=O)O)C(N)=O)cc1 [MAI-516] ({Benzoyl(4-OMe)}-AGESLYE-NH2) was tested, and the “reduction of binding affinity vs APC WT” value (APC W593A, N641A) was 200 fold, the “-TΔS” value (APC W593A, N641A; 30 °C) was 4.9 kcal/mol and the L/P ratio (APC W593A, N641A; 30 °C) was 0.77. It also gave a ΔG (APC W593A, N641A; 30 °C) of -8.44 kcal/mol, a ΔH (APC W593A, N641A; 30 °C) of -13.3 kcal/mol and a Kd (APC W593A, N641A; ITC, 30 °C) of 860 nM. For the same compound, the “RT (RT = 1/koff)” value (His-tagged APC (303–739)) was 135 s, the “Relative response at equilibrium” value (His-tagged APC (303–739); 1.5625 nM) was 2.9457 RU and the “Relative response at equilibrium” value (His-tagged APC (303–739); 3.125 nM) was 3.565 RU. For the same compound, the “Relative response at equilibrium” value (His-tagged APC (303–739); 6.25 nM) was 5.67 RU, the “Relative response at equilibrium” value (His-tagged APC (303–739); 12.5 nM) was 10.1156 RU and the “Relative response at equilibrium” value (His-tagged APC (303–739); 25 nM) was 17.7318 RU. The “Relative response at equilibrium” value (His-tagged APC (303–739); 50 nM) was 24.4156 RU, the “Relative response at equilibrium” value (His-tagged APC (303–739); 100 nM) was 27.6681 RU and the “Relative response at equilibrium” value (His-tagged APC (303–739); 200 nM) was 31.5021 RU. For the same compound, the Kd (His-tagged APC (303–739); SPR, Repeat 1, read-out: KD Repeat 1) was 19.9 nM, the koff (His-tagged APC (303–739); SPR, Repeat 1, read-out: koff Repeat 1) was 0.00848 s⁻¹ and the kon (His-tagged APC (303–739); SPR, Repeat 1, read-out: kon Repeat 1) was 427000 M⁻¹ s⁻¹. It also gave a Kd (His-tagged APC (303–739); SPR, Repeat 2, read-out: KD Repeat 2) of 18.8 nM, a koff (His-tagged APC (303–739); SPR, Repeat 2, read-out: koff Repeat 2) of 0.00807 s⁻¹ and a kon (His-tagged APC (303–739); SPR, Repeat 2, read-out: kon Repeat 2) of 430000 M⁻¹ s⁻¹. The Kd (His-tagged APC (303–739); SPR, Repeat 3, read-out: KD Repeat 3) was 16 nM, the koff (His-tagged APC (303–739); SPR, Repeat 3, read-out: koff Repeat 3) was 0.00564 s⁻¹ and the kon (His-tagged APC (303–739); SPR, Repeat 3, read-out: kon Repeat 3) was 353000 M⁻¹ s⁻¹. For the same compound, the Kd (His-tagged APC (303–739); SPR, mean of 3 repeats, read-out: KD mean) was 18.2 nM, the koff (His-tagged APC (303–739); SPR, mean of 3 repeats, read-out: koff mean) was 0.0074 s⁻¹ and the kon (His-tagged APC (303–739); SPR, mean of 3 repeats, read-out: kon mean) was 403000 M⁻¹ s⁻¹. The RT (His-tagged APC (303–739); SPR, single value printed in the Repeat 1 column) was 135 s, the “Relative migration ability (single replicates)” value (SW480 cells; FigS10c, relative to DMSO) was 0.86 and 1.12 and 0.84 and the “Relative migration ability, mean” value (SW480 cells; FigS10c, relative to DMSO) was 0.94. For the same compound, the “cell migration (wound healing)” value (SW480 cells; SW480, MAI-516 50 μM) was “dose not inhibit the migration; also recorded: no apparent impact” and the “effect on APC–Asef PPI (Co-IP)” value [1] was “no effect”.
